How the values were obtained:
[1] = Inhibition of IL-15 in mouse 32Dbeta cells assessed as decrease in cell growth in presence of RLI incubated for 30 mins followed by RLI addition and measured after 2.5 days by alamar blue assay
[2] = Inhibition of […] in mouse 32Dbeta cells assessed as decrease in cell growth in presence of IL2 incubated for 30 mins followed by IL2 addition and measured after 2.5 days by alamar blue assay

Row | Compound | IC50 [1] [µM] | IC50 [2] [µM]
1 | Cn1c(Cc2nn(CCCO)c(=O)c3ccccc23)nnc1SCCCCCCCC(=O)Nc1ccc(Cl)cc1Cl | > 30 | > 30
2 | Cn1nc(Cc2nnc(SCC(=O)Nc3ccc(Cl)cc3Cl)n2CCC(=O)O)c2ccccc2c1=O | > 30 | > 30
3 | Cn1c(Cc2nn(C)c(=O)c3ccccc23)nnc1SCCCCCCCC(=O)Nc1ccc(Cl)cc1Cl | 2.2 | 3.9
4 | Cn1c(Cc2nn(CCC=O)c(=O)c3ccccc23)nnc1SCCCCCCCC(=O)Nc1ccc(Cl)cc1Cl | 8.9 | 11.7
5 | Cn1c(Cc2nn(CCC=O)c(=O)c3ccccc23)nnc1SCC(=O)Nc1ccc(Cl)cc1Cl | 30 | 30
6 | Cn1nc(Cc2nnc(SCCCCCCCC(=O)Nc3ccc(Cl)cc3Cl)n2CCCO[Si](C)(C)C(C)(C)C)c2ccccc2c1=O | > 30 | > 30
7 | Cn1nc(Cc2nnc(SCCCCCCCC(=O)Nc3ccc(Cl)cc3Cl)[nH]2)c2ccccc2c1=O | 1.1 | 3.5
8 | Cn1c(Cc2nn(CCC3OCCO3)c(=O)c3ccccc23)nnc1SCC(=O)Nc1ccc(Cl)cc1Cl | > 30 | > 30
9 | Cn1c(Cc2nn(C)c(=O)c3ccccc23)nnc1SCC(=O)Nc1ccc(Cl)cc1Cl | 22.5 | 21.1
10 | CCOC(CCn1c(Cc2nn(C)c(=O)c3ccccc23)nnc1SCCCCCCCC(=O)Nc1ccc(Cl)cc1Cl)OCC | 12.1 | 16.4
11 | Cn1c(Cc2nn(CCC(=O)O)c(=O)c3ccccc23)nnc1SCCCCCCCC(=O)Nc1ccc(Cl)cc1Cl | > 30 | > 30
12 | Cn1c(Cc2nn(CCC(=O)O)c(=O)c3ccccc23)nnc1SCC(=O)Nc1ccc(Cl)cc1Cl | > 30 | > 30
13 | CN(C)CCCn1c(Cc2nn(C)c(=O)c3ccccc23)nnc1SCCCCCCCC(=O)Nc1ccc(Cl)cc1Cl | 3.7 | 5.5
14 | CCOC(CCn1c(Cc2nn(C)c(=O)c3ccccc23)nnc1SCC(=O)Nc1ccc(Cl)cc1Cl)OCC | > 30 | > 30
15 | Cn1nc(Cc2nnc(SCCCCCCCC(=O)Nc3ccc(Cl)cc3Cl)n2CCC(=O)O)c2ccccc2c1=O | > 30 | > 30
16 | Cn1nc(Cc2nnc(SCC(=O)Nc3ccc(Cl)cc3Cl)n2CCC=O)c2ccccc2c1=O | 6 | 6.4
17 | Cn1c(Cc2n[nH]c(=O)c3ccccc23)nnc1SCCCCCCCC(=O)Nc1ccc(Cl)cc1Cl | > 30 | > 30
18 | Cn1c(Cc2nn(CCCO[Si](C)(C)C(C)(C)C)c(=O)c3ccccc23)nnc1SCCCCCCCC(=O)Nc1ccc(Cl)cc1Cl | > 30 | > 30
19 | Cn1c(Cc2nn(CCCO)c(=O)c3ccccc23)nnc1SCC(=O)Nc1ccc(Cl)cc1Cl | > 30 | > 30
20 | Cn1c(Cc2nn(C)c(=O)c3ccccc23)nnc1SCCCCCCCC(=O)Nc1ccc(C(=O)c2ccccc2)cc1 | 6.7 | 20.6
21 | Cn1nc(Cc2nnc(SCCCCCCCC(=O)Nc3ccc(Cl)cc3Cl)n2CCC=O)c2ccccc2c1=O | 2.5 | 5.5
22 | Cn1nc(Cc2nnc(SCC(=O)Nc3ccc(Cl)cc3Cl)n2CCCO)c2ccccc2c1=O | > 30 | > 30
23 | Cn1nc(Cc2nnc(SCCCCCCCC(=O)Nc3ccc(Cl)cc3Cl)n2CCCO)c2ccccc2c1=O | > 30 | > 30
24 | CN(C)CCCn1nc(Cc2nnc(SCCCCCCCC(=O)Nc3ccc(Cl)cc3Cl)n2C)c2ccccc2c1=O | 2.3 | 3.2
25 | CN(C)CCCn1nc(Cc2nnc(SCC(=O)Nc3ccc(Cl)cc3Cl)n2C)c2ccccc2c1=O | 18.8 | 16.7

Source: BindingDB's records for doi:10.1016/j.bmc.2021.116161 (University of Nantes, 2021)
